Assays:
[1] = tested on: Goldenrod; assay: Test 4 plantation crop weeds, postemergence; format: in vivo, Solidago spp; conditions: Table 6, profusely branching, scale 0-100
Text: (§1) The object of this test was to evaluate the efficacy of the compound of this invention on weeds that infest some plantation crops at different growth stages of the weeds. Asystasia intrusa, Mikania cordata, goldenrod Solidago spp, Boston fern Nephrolepis exalata, and lalang Imparata cylindrica were planted in 15-cm plastic pots. Plants were sprayed postemergence with Compound I in a non-phytotoxic solvent. The Asystasia plants ranged in growth from 4 leaves to 9 leaves and very branched, Mikania had 6 leaves to vining, the goldenrod was branching and the Boston fern was growing vigorously. The degree of weed control was visually rated 20 to 24 days after treatment (DAT). Control ratings are based on the scale of 0 to 100 where 0 = no effect, 20 = minimal control and 100 = complete control. Variations in the results of the tests could be due to the fact that the tests were run at different times of the year or due to the stage of growth of the weeds.

[2] = tested on: Lalang; assay: Test 4 plantation crop weeds, postemergence; format: in vivo, Imparata cylindrica; conditions: Table 8, scale 0-100
Text: as §1

[3] = tested on: Sugarcane; assay: Test 5 sugarcane injury and weed control, postemergence; format: in vivo, Saccharum spp.; conditions: scale 0-100
Procedure: (§2) Sugarcane (Saccharum spp.) cuttings which had been pre-sprouted were planted in 15-cm plastic pots. Narrowleaf panicum (Panicum maximum), large crabgrass (Digitaria sanguinalis), guineagrass (P. maximum) and itchgrass (Rottboellia exaltata) were seeded in individual 15-cm plastic pots.
(§3) The pots were treated postemergence when the plants had 3 to 4 leaves with 2 to 3 tillers with Compound I formulated in a non-phytotoxic carrier made up of acetone-humectant-water-surfactant (22:1:1:0.05 v/v). The degree of crop injury and weed control was visually rated 27 days after treatment (DAT). Plant injury ratings are based on the scale of 0 to 100 where 0 = no effect, 20 = minimal injury and 100 = complete control.

[4] = tested on: Large Crabgrass; assay: as above; format: in vivo, Digitaria sanguinalis; conditions: scale 0-100
Procedure: as §2, §3

[5] = tested on: weed; assay: Test 6 effect of surfactants, postemergence; format: in vivo; conditions: addition of a surfactant
Text: The object of this test was to evaluate the effect of surfactants and plant growth stage on the efficacy of the compound of this invention. Plastic windowsill pots were filled with planting medium and seeded with yellow nutsedge (Cyperus esculentus), large crabgrass (Digitaria sanguinalis), goosegrass (Elsusine indica), bermudagrass (Cynodon dactylon), broadleaf signalgrass (Brachiara platyphalla), smooth crabgrass (Digitaria ischaemum), guinea grass (Panicum maximum) and johnsongrass (Sorghum halapense). Coffee (Coffea spp) plants with 2 to 4 branches were included in one test.
Plants were treated postemergence with Compound I formulated with different surfactants or a non-phytotoxic carrier made up of acetone-humectant-water-surfactant.

[6] = tested on: Annual bluegrass; assay: Test 8 postemergence safety to pineapple, turfs and weed control; format: in vivo; conditions: scale 0-100
Text: (§4) The object of this test was to evaluate the compound of this invention for postemergence safety to pineapple, turfs and weed control. Climax timothy, Kentucky bluegrass, forage fescue, Kentucky fescue, bermudagrass, bentgrass, annual bluegrass, bahiagrass, purple nutsedge, yellow nutsedge, large crabgrass, perennial ryegrass, annual ryegrass, galium and pineapple were sprayed postemergence with the compound in a non-phytotoxic solvent. Plants were visually rated 36 days after treatment (DAT). Injury ratings were based on the scale of 0 to 100 where 0 = no effect, 20 = minimal effect and 100 = complete control.

[7] = tested on: Purple nutsedge; assay: as above; format: in vivo; conditions: scale 0-100
Text: as §4

[8] = tested on: Yellow nutsedge; assay: as above; format: in vivo; conditions: scale 0-100
Text: as §4

[9] = tested on: Annual ryegrass; assay: Test 10 postemergence safety to crops and weed control; format: in vivo, Lolium multiflorum; conditions: 16 g/ha, scale 0-100
Procedure: The object of these tests was to evaluate the compound of this invention for postemergence safety to crops and weed control. Seedling and budded Macedine grapes were grown in 11.4-cm pots. Flax, green foxtail (Setaria viridis), "Morex" barley, wild oats (Avena fatua), "Era" wheat, annual ryegrass (Lolium multiflorum), wild radish (Raphanus raphanistrum), rape, sunflower, chickweed (Stellaria media) and wild buckwheat (Polygonum convolvulus) were seeded in windowsill pots.
The plants were sprayed postemergence with Compound I in a non-phytotoxic solvent. Plants were visually rated 15 and 27 days after treatment (DAT). Injury and weed control ratings were based on the scale of 0 to 100 where 0 = no effect, 20 minimal control and 100 = complete control.

[10] = tested on: Common ragweed; assay: Test 11 citrus pots, postemergence to the weeds; format: in vivo, Ambrosia artemisiifolia; conditions: Postemergence 32 g/ha, 0.25% X-77 surfactant, scale 0-100
Procedure: (§5) Budded citrus seedlings were planted in 30-liter plastic pots which were also seeded with sandbur, guineagrass, narrowleaf panicum, common ragweed, yellow nutsedge, purple nutsedge and bindweed. Compound I was applied preemergence and postemergence to the weeds. Treatments were sprayed to simulate the trunk-to-trunk herbicide application method used in some citrus groves. The compound was also applied postemergence to weeds grown in windowsill flats. The flats were filled with planting medium and seeded with morningglory (Ipomoea spp.). purple nutsedge (Cyperus rotundus), pigweed (Amaranthus spp.), bindweed (Convolvulus spp.), narrowleaf panicum (Panicum maximum), common ragweed (Ambrosia artemisiifolia), sandbur (Cenchrus echinatus), itchgrass (Rottboellia exaltata), johnsongrass (Sorghum halepense), guineagrass (Panicum maximum), smooth crabgrass (Digitaria ischaemum), broadleaf signalgrass (Brachiaria platyphylla), bermudagrass (Cynodon dactylon), goosegrass (Eleusine indica), large crabgrass (Digitaria sanguinalis) and yellow nutsedge (Cyperus esculentus).
(§6) The compound was formulated and sprayed with 0.25% X-77 surfactant in water. Plants were visually rated 21 and 29 days after treatment and compared with appropriate controls. Injury ratings were based on the scale of 0 to 100, where 0 indicates no effect, 20 indicates minimum effect and 100 indicates complete control. […]

[11] = tested on: Purple nutsedge; assay: Test 11 windowsill flats, postemergence; format: in vivo, Cyperus rotundus; conditions: Postemergence 32 g/ha, 0.25% X-77 surfactant, scale 0-100
Procedure: as §5, §6

[12] = tested on: Sandbur; assay: Test 11 windowsill flats, postemergence; format: in vivo, Cenchrus echinatus; conditions: Postemergence 32 g/ha, 0.25% X-77 surfactant, scale 0-100
Procedure: as §5, §6

[13] = tested on: Trumpetcreeper; assay: Test 12 over-the-top application, postemergence; format: in vivo, Campsis radicans; conditions: 26 days after treatment, scale 0-100
Text: The object of this test was to evaluate the safety of sour lemon to the over-the-top application of Compound I and control of lantana (Lantana camara) and trumpetcreeper (Campsis radicans). Plants were sprayed postemergence with Compound I formulated in a non-phytotoxic solvent. Treated plants were visually rated 26 days after treatment and compared with appropriate controls. Injury ratings were based on the scale of 0 to 100, where 0 indicates no effect, 20 indicates minimal effect and 100 indicates complete control.

COC(=O)c1cccnc1S(=O)(=O)NC(=O)Nc1nc(OC)cc(OC)n1 [Compound I, 2-[[(4,6-dimethoxypyrimidin-2-yl)aminocarbonyl]aminosulfonyl]-3-pyridinecarboxylic acid, methyl ester]
Control Rating 20 DAT ([1]; 16 g/ha): 30
Control Rating 20 DAT ([1]; 32 g/ha): 30
Control Rating 22 DAT ([2]; 16 g/ha): 20
Control Rating 22 DAT ([2]; 32 g/ha): 20
Control Rating 22 DAT ([2]; 64 g/ha): 40
Plant Injury Rating 27 DAT ([3]; 8 g/ha): 10
Plant Injury Rating 27 DAT ([3]; 16 g/ha): 20
Plant Injury Rating 27 DAT ([3]; 32 g/ha): 20
Plant Injury Rating 27 DAT ([3]; 64 g/ha): 30
Plant Injury Rating 27 DAT ([4]; 8 g/ha): 30
Plant Injury Rating 27 DAT ([4]; 16 g/ha): 60
Plant Injury Rating 27 DAT ([4]; 32 g/ha): 80
Plant Injury Rating 27 DAT ([4]; 64 g/ha): 100
weed control [5]: could improve the weed control
Plant Injury Rating 36 DAT ([6]; 16 g/ha): 100
Plant Injury Rating 36 DAT ([6]; 32 g/ha): 100
Plant Injury Rating 36 DAT ([7]; 16 g/ha): 50
Plant Injury Rating 36 DAT ([7]; 32 g/ha): 100
Plant Injury Rating 36 DAT ([8]; 16 g/ha): 60
Plant Injury Rating 36 DAT ([8]; 32 g/ha): 100
Plant Injury Rating 15 DAT [9]: 100
Injury ratings [10]: 0
Injury ratings [11]: 100
Injury ratings [12]: 100
Injury ratings ([13]; 8 g/ha): 0
Injury ratings ([13]; 16 g/ha): 20
Injury ratings ([13]; 32 g/ha): 40

Source: patent EP0314302A2, “Herbicidal o-carbomethoxy-sulfonylureas” (E.I. DU PONT DE NEMOURS AND COMPANY, priority 1987, dated 1989)
